Test system: C. difficile
Test: mouse acute CDI model using dextran sulfate sodium (DSS), survival rate after oral administration
Assay type: in vivo
Details: for Mouse survival rate (%) according to type of administered drug: 10 mg/kg of vancomycin alone
Description: FIG. 3 is a diagram sequentially illustrating a series of experiments of being treated with dextran sodium sulfate (DSS), being infected with C. difficile, being administered with a bentonite-vancomycin complex, and observing survival rates, in order to produce a mouse acute CDI model. […]
In order to set the mixing ratio of the bentonite-antibiotics complex, vancomycin was orally administered at concentrations of 2, 20, and 200 mg/kg in a mouse acute CDI model using DSS, and the results were shown in Table 2 below and FIG. 5.
In order to confirm a synergistic effect on CDI treatment through the bentonite-antibiotics complex, according to the daily intake, the bentonite was administered at a dose concentration of 50 mg/kg and the vancomycin was administered at a dose concentration of 5 mg/kg, and the survival rates of mice were confirmed as compared to cases of administering 10 mg/kg of vancomycin alone, 50 mg/kg of bentonite alone, and saline alone as control groups thereto.

CN[C@H](CC(C)C)C(=O)N[C@H]1C(=O)N[C@@H](CC(N)=O)C(=O)N[C@H]2C(=O)N[C@H]3C(=O)N[C@H](C(=O)N[C@H](C(=O)O)c4cc(O)cc(O)c4-c4cc3ccc4O)[C@H](O)c3ccc(c(Cl)c3)Oc3cc2cc(c3O[C@@H]2O[C@H](CO)[C@@H](O)[C@H](O)[C@H]2O[C@H]2C[C@](C)(N)[C@H](O)[C@H](C)O2)Oc2ccc(cc2Cl)[C@H]1O [Vancomycin, vancomycin]
Mouse survival rate (%) according to type of administered drug (D+14): 1/6 (17%)
Mouse survival rate (%) according to type of administered drug (D-0): 6/6 (100%)
Mouse survival rate (%) according to vancomycin dose (vancomycin 2 mg/kg orally, D+14): (20%)
Mouse survival rate (%) according to vancomycin dose (vancomycin 2 mg/kg orally, D+14, listed as vancomycin): 20%
Mouse survival rate (%) according to vancomycin dose (vancomycin 2 mg/kg orally, D-0): (100%)
Mouse survival rate (%) according to vancomycin dose (vancomycin 20 mg/kg orally, D+14): 5/5 (100%)
Mouse survival rate (%) according to vancomycin dose (vancomycin 20 mg/kg orally, D+14, listed as vancomycin): 100%
Mouse survival rate (%) according to vancomycin dose (vancomycin 20 mg/kg orally, D-0): 5/5 (100%)
Mouse survival rate (%) according to vancomycin dose (vancomycin 200 mg/kg orally, D+14): 5/5 (100%)
Mouse survival rate (%) according to vancomycin dose (vancomycin 200 mg/kg orally, D+14, listed as vancomycin): 100%
Mouse survival rate (%) according to vancomycin dose (vancomycin 200 mg/kg orally, D-0): 5/5 (100%)

Reference: patent publication US20240024412A1, “PHARMACEUTICAL COMPOSITION FOR TREATING CDI COMPRISING CLAY MINERAL COMPLEX, AND METHOD FOR PRODUCING SAME” (priority 2020, published 2024)
